Assay results reported in PubChem BioAssay (NCI).
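Each compound was tested at five concentrations against cells in 96-well plates for 48 hours. GI50 = concentration required for 50% inhibition of growth. TGI denotes the concentration required for complete inhibition of growth.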

Columns and labels:
Test in all cases: NCI tumour cell line growth inhibition, 48 h
786-0 renal = tested on: 786-0 renal
A498 renal = tested on: A498 renal
A549 NSCLC = tested on: A549 NSCLC
ACHN renal = tested on: ACHN renal
CAKI-1 renal = tested on: CAKI-1 renal
CCRF-CEM leukemia = tested on: CCRF-CEM leukemia
COLO 205 colon = tested on: COLO 205 colon
DLD-1 colon = tested on: DLD-1 colon
DMS 114 small cell lung = tested on: DMS 114 small cell lung
DMS 273 small cell lung = tested on: DMS 273 small cell lung
EKVX NSCLC = tested on: EKVX NSCLC
HCC-2998 colon = tested on: HCC-2998 colon
HCT-116 colon = tested on: HCT-116 colon
HCT-15 colon = tested on: HCT-15 colon
HL-60(TB) leukemia = tested on: HL-60(TB) leukemia
HOP-18 NSCLC = tested on: HOP-18 NSCLC
HOP-62 NSCLC = tested on: HOP-62 NSCLC
HOP-92 NSCLC = tested on: HOP-92 NSCLC
HT29 colon = tested on: HT29 colon
IGROV1 ovarian = tested on: IGROV1 ovarian
K-562 leukemia = tested on: K-562 leukemia
KM12 colon = tested on: KM12 colon
KM20L2 colon = tested on: KM20L2 colon
LOX IMVI melanoma = tested on: LOX IMVI melanoma
LXFL 529 NSCLC = tested on: LXFL 529 NSCLC
M14 melanoma = tested on: M14 melanoma
M19-MEL melanoma = tested on: M19-MEL melanoma
MALME-3M melanoma = tested on: MALME-3M melanoma
MOLT-4 leukemia = tested on: MOLT-4 leukemia
NCI-H226 lung = tested on: NCI-H226 lung
NCI-H23 lung = tested on: NCI-H23 lung
NCI-H460 lung = tested on: NCI-H460 lung
NCI-H522 lung = tested on: NCI-H522 lung
OVCAR-3 ovarian = tested on: OVCAR-3 ovarian
OVCAR-4 ovarian = tested on: OVCAR-4 ovarian
OVCAR-5 ovarian = tested on: OVCAR-5 ovarian
OVCAR-8 ovarian = tested on: OVCAR-8 ovarian
RPMI-8226 leukemia = tested on: RPMI-8226 leukemia
RXF 393 renal = tested on: RXF 393 renal
RXF-631 renal = tested on: RXF-631 renal
SF-268 CNS = tested on: SF-268 CNS
SF-295 CNS = tested on: SF-295 CNS
SF-539 CNS = tested on: SF-539 CNS
SK-MEL-2 melanoma = tested on: SK-MEL-2 melanoma
SK-MEL-28 melanoma = tested on: SK-MEL-28 melanoma
SK-MEL-5 melanoma = tested on: SK-MEL-5 melanoma
SK-OV-3 ovarian = tested on: SK-OV-3 ovarian
SN12C renal = tested on: SN12C renal
SNB-19 CNS = tested on: SNB-19 CNS
SNB-75 CNS = tested on: SNB-75 CNS
SNB-78 CNS = tested on: SNB-78 CNS
SW-620 colon = tested on: SW-620 colon
TK-10 renal = tested on: TK-10 renal
U251 CNS = tested on: U251 CNS
UACC-257 melanoma = tested on: UACC-257 melanoma
UACC-62 melanoma = tested on: UACC-62 melanoma
UO-31 renal = tested on: UO-31 renal
XF 498 CNS = tested on: XF 498 CNS

## CCC[CH2][Sn]([CH2]CCC)([O]C(=O)c1cc(OC)c(OC)cc1OC)[O][Sn]([CH2]CCC)([CH2]CCC)[O]C(=O)c1cc(OC)c(OC)cc1OC
786-0 renal
  GI50: 240 nM
  TGI: 698 nM
A498 renal
  GI50: 508 nM
  TGI: 1760 nM
A549 NSCLC
  GI50: 1670 nM
  TGI: 3.5 µM
ACHN renal
  GI50: 339 nM
  TGI: 1170 nM
CAKI-1 renal
  GI50: 161 nM
  TGI: 686 nM
CCRF-CEM leukemia
  GI50: 42.1 nM
  TGI: 422 nM
COLO 205 colon
  GI50: 381 nM
  TGI: 1320 nM
DLD-1 colon
  GI50: 253 nM
  TGI: 1340 nM
DMS 114 small cell lung
  GI50: 314 nM
  TGI: 1260 nM
DMS 273 small cell lung
  GI50: 762 nM
  TGI: 1760 nM
EKVX NSCLC
  GI50: 1700 nM
  TGI: 3.09 µM
HCC-2998 colon
  GI50: 1100 nM
  TGI: 2410 nM
HCT-116 colon
  GI50: 670 nM
  TGI: 1820 nM
HCT-15 colon
  GI50: 497 nM
  TGI: 1710 nM
HL-60(TB) leukemia
  GI50: 288 nM
  TGI: 1310 nM
HOP-18 NSCLC
  GI50: 1780 nM
  TGI: 3.16 µM
HOP-62 NSCLC
  GI50: 2110 nM
  TGI: 3.67 µM
HOP-92 NSCLC
  GI50: 206 nM
  TGI: 564 nM
HT29 colon
  GI50: 1220 nM
  TGI: 2820 nM
IGROV1 ovarian
  GI50: 1170 nM
  TGI: 2680 nM
K-562 leukemia
  GI50: 81.2 nM
  TGI: 8.43 µM
KM12 colon
  GI50: 897 nM
  TGI: 2300 nM
KM20L2 colon
  GI50: 1210 nM
  TGI: 2560 nM
LOX IMVI melanoma
  GI50: 257 nM
  TGI: 782 nM
LXFL 529 NSCLC
  GI50: 59.9 nM
  TGI: 214 nM
M14 melanoma
  GI50: 282 nM
  TGI: 797 nM
M19-MEL melanoma
  GI50: 347 nM
  TGI: 1700 nM
MALME-3M melanoma
  GI50: 229 nM
  TGI: 977 nM
MOLT-4 leukemia
  GI50: 101 nM
  TGI: 786 nM
NCI-H226 lung
  GI50: 507 nM
  TGI: 1080 nM
NCI-H23 lung
  GI50: 313 nM
  TGI: 1190 nM
NCI-H460 lung
  GI50: 1300 nM
  TGI: 2850 nM
NCI-H522 lung
  TGI: 55.6 nM
OVCAR-3 ovarian
  GI50: 798 nM
  TGI: 2070 nM
OVCAR-4 ovarian
  GI50: 1330 nM
  TGI: 2960 nM
OVCAR-5 ovarian
  GI50: 1750 nM
  TGI: 3.14 µM
OVCAR-8 ovarian
  GI50: 583 nM
  TGI: 1890 nM
RPMI-8226 leukemia
  GI50: 236 nM
  TGI: 667 nM
RXF 393 renal
  GI50: 151 nM
  TGI: 304 nM
RXF-631 renal
  GI50: 158 nM
  TGI: 365 nM
SF-268 CNS
  GI50: 270 nM
  TGI: 972 nM
SF-295 CNS
  GI50: 1100 nM
  TGI: 2410 nM
SF-539 CNS
  GI50: 314 nM
  TGI: 1010 nM
SK-MEL-2 melanoma
  GI50: 173 nM
  TGI: 824 nM
SK-MEL-28 melanoma
  GI50: 297 nM
  TGI: 1020 nM
SK-MEL-5 melanoma
  GI50: 898 nM
  TGI: 2150 nM
SK-OV-3 ovarian
  GI50: 1210 nM
  TGI: 2580 nM
SN12C renal
  GI50: 532 nM
  TGI: 1720 nM
SNB-19 CNS
  GI50: 270 nM
  TGI: 1080 nM
SNB-75 CNS
  GI50: 124 nM
  TGI: 700 nM
SNB-78 CNS
  GI50: 402 nM
  TGI: 1510 nM
SW-620 colon
  GI50: 182 nM
  TGI: 536 nM
TK-10 renal
  GI50: 1530 nM
  TGI: 2860 nM
U251 CNS
  GI50: 1170 nM
  TGI: 2410 nM
UACC-257 melanoma
  GI50: 276 nM
  TGI: 883 nM
UACC-62 melanoma
  GI50: 251 nM
  TGI: 715 nM
UO-31 renal
  GI50: 1330 nM
  TGI: 2600 nM
XF 498 CNS
  GI50: 196 nM
  TGI: 508 nM
